Among the data in patent US8987314B2, “Amide, urea or sulfone amide linked benzothiazole inhibitors of endothelial lipase” (Bristol-Myers Squibb Company, priority 2012, dated 2015) are IC50 values, retold here.

In general, pIC50 refers to −log10 of the IC50, conventionally taken in molar units. Lower therefore signals a large IC50.

pIC50: −log10 of the molar value.

One assay has as its target hepatic lipase (HL) (Homo sapiens (Human), UniProt P11150). The assay is described as follows: HL assay: hepatic lipase activity with fluorescent substrate A10070 in DMPG vesicles. The format is biochemical. In outline:
(§1)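 EL from conditioned medium of HT-1080 cells engineered to overexpress endogenous EL; HL partially purified from conditioned medium of HL-overexpressing COS cells. Enzyme preincubated with compound 30 min at 37° C in 50 mM HEPES pH 8.0, 50 mM NaCl, 1 mM CaCl2; DMPG vesicles carrying FRET substrate (0.11 mole fraction) then added.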

In another assay the target is Endothelial lipase (EL) (Homo sapiens (Human), UniProt Q9Y5X9). The assay is described as follows: EL assay: endothelial lipase activity with fluorescent substrate A10070 in DMPG vesicles. The format is biochemical. In outline:
as §1

Chain of hepatic lipase (HL) (P11150 23-499, species assumed): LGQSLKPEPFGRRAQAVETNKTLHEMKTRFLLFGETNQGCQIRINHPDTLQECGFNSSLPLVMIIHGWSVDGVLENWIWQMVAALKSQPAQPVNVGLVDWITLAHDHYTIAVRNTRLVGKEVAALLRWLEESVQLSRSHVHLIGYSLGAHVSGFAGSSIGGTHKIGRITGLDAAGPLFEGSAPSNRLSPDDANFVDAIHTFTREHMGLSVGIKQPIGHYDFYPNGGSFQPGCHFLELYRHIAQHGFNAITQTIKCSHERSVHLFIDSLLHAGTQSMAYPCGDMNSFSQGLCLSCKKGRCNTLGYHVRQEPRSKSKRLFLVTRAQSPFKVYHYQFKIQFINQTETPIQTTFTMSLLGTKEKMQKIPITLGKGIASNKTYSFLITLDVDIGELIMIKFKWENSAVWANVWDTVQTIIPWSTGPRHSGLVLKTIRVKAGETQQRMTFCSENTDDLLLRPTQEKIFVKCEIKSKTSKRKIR
Chain of Endothelial lipase (EL) (Q9Y5X9 21-500): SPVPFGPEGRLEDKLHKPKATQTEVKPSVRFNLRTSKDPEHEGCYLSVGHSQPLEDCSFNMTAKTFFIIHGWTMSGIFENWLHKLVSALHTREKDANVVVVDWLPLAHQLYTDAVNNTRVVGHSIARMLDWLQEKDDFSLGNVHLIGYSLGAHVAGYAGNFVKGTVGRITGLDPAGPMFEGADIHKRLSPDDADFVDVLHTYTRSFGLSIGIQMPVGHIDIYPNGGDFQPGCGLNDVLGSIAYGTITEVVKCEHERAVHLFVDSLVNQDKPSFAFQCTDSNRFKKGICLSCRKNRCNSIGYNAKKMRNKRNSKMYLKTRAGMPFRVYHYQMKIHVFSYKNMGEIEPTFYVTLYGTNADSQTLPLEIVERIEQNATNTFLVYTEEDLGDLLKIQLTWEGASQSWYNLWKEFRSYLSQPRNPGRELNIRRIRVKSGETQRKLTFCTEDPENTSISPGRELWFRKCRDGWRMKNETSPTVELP

For `NS(=O)(=O)CCNC(=O)C(c1nc2ccc(-c3ccc(CO)cc3)cc2s1)S(=O)(=O)Cc1ccc(F)cc1` (stereo not shown) [Example B245, 2-[(4-fluorophenyl)meth-anesulfonyl]-2-{6-[4-(hydroxymethyl)phenyl]-1,3-benzothiazol-2-yl}-N-(2-sulfamoylethyl)a-cetamide], the pIC50 at hepatic lipase (HL) is 6.88; against Endothelial lipase (EL), 8.68.

For the molecule `COCCN(C)C(=O)c1ccc(-c2ccc3nc(C(C(=O)NCCS(N)(=O)=O)S(C)(=O)=O)sc3c2)cc1F` (stereo not shown) [Example B246, 2-fluoro-4-(2-{methanesul-fonyl[(2-sulfamoylethyl)car-bamoyl]methyl}-1,3-benzothiazol-6-yl)-N-(2-methoxyethyl)-N-methyl-benzamide], the pIC50 against hepatic lipase (HL) was 7.03; at Endothelial lipase (EL), 8.55.

As to `COCCN(C)C(=O)c1ccc(-c2ccc3nc(C(C(=O)NCCS(N)(=O)=O)S(=O)(=O)CC4CC4)sc3c2)cc1F` (stereo not shown) [Example B247, 4-(2-{cyclopropylmethane-sulfonyl[(2-sulfamoyl-ethyl)carbamoyl]methyl}-1,3-benzothiazol-6-yl)-2-fluoro-N-(2-methoxy-ethyl)-N-methylbenzamide], the negative-log IC50 (pIC50) on hepatic lipase (HL) was 6.90; on Endothelial lipase (EL) it was 8.21.

With `COCC(C)(C)NC(=O)c1ccc(-c2ccc3nc(C(C(=O)NCCS(N)(=O)=O)S(=O)(=O)CC4CC4)sc3c2)cc1` (stereo not shown) [Example B248, 4-(2-{cyclopropylmethane-sulfonyl[(2-sulfamoyl-ethyl)carbamoyl]methyl}-1,3-benzothiazol-6-yl)-N-(1-methoxy-2-methyl-propan-2-yl)benzamide], the pIC50 on hepatic lipase (HL) is 7.75; on Endothelial lipase (EL), 8.12.

In the case of `COCC(C)(C)NC(=O)c1ccc(-c2ccc3nc(C(C(=O)NCCS(N)(=O)=O)S(=O)(=O)Cc4ccc(OC(F)(F)F)cc4)sc3c2)cc1` (stereo not shown) [Example B249, N-(1-methoxy-2-methyl-propan-2-yl)-4-(2-{[(2-sulfamoylethyl)carbamoyl][4-(trifluoromethoxy)phen-yl]methanesulfonyl-methyl}-1,3-benzothiazol-6-yl)benzamide], the pIC50 on hepatic lipase (HL) was 7.53; against Endothelial lipase (EL), 8.08.

Take `COC[C@H](C)NC(=O)c1ccc(-c2ccc3nc(C(C(=O)NCCS(N)(=O)=O)S(=O)(=O)Cc4ccc(OC(F)(F)F)cc4)sc3c2)cc1` (stereo partly drawn) [Example B250, N-[(2S)-1-methoxypropan-2-yl]-4-(2-{[(2-sulfamoyl-ethyl)carbamoyl][4-(trifluoromethoxy)phen-yl]methanesulfonylmethyl}-1,3-benzothiazol-6-yl)ben-zamide]: the figures for the pIC50 against hepatic lipase (HL) and on Endothelial lipase (EL) were 7.42 and 8.28, respectively.

In the case of `C[C@H]1CN(C(=O)c2ccc(-c3ccc4nc(C(C(=O)NCCS(N)(=O)=O)S(=O)(=O)CC5CC5)sc4c3)cc2)CCO1` (stereo partly drawn) [Example B251, 2-cyclopropylmethane-sulfonyl-2-(6-{4-[(2S)-2-methylmorpholine-4-carbonyl]phenyl}-1,3-benzothiazol-2-yl)-N-(2-sulfamoylethyl)acetamide], the pIC50 against hepatic lipase (HL) is 6.44; against Endothelial lipase (EL) it was 8.59.

`Cc1nnc(CNC(=O)C(c2nc3ccc(-c4ccc(O)cc4)cc3s2)S(=O)(=O)Cc2ccccc2)o1` (stereo not shown) [Example B254, 2-[6-(4-hydroxyphenyl)-1,3-benzothiazol-2-yl]-N-[(5-methyl-1,3,4-oxadiazol-2-yl)methyl]-2-phenylmethanesulfonyl-acetamide]: the figures for the negative-log IC50 (pIC50) on hepatic lipase (HL) and on Endothelial lipase (EL) were 6.59 and 6.53, respectively.

Take `Cc1nnc(CNC(=O)C(c2nc3ccc(-c4cccc(N(C)C)c4)cc3s2)S(=O)(=O)Cc2ccccc2)o1` (stereo not shown) [Example B255, 2-{6-[3-(dimethylamino)phen-yl]-1,3-benzothiazol-2-yl}-N-[(5-methyl-1,3,4-oxadiazol-2-yl)methyl]-2-phenylmethanesulfonyl-acetamide]: the pIC50 is 7.36 on hepatic lipase (HL) and 6.65 against Endothelial lipase (EL).

Regarding `CS(=O)(=O)C(C(=O)NCc1cccc(S(N)(=O)=O)c1)c1nc2ccc(-c3ccccc3)cc2s1` (stereo not shown) [Example B256, 2-methanesulfonyl-2-(6-phenyl-1,3-benzothiazol-2-yl)-N-[(3-sulfamoylphen-yl)methyl]acetamide], the pIC50 on hepatic lipase (HL) was 7.83; against Endothelial lipase (EL) it was 6.72.

`Cc1nnc(CNC(=O)C(c2nc3ccc(-c4ccc(C(=O)N5CC(F)(F)C5)cc4)cc3s2)S(C)(=O)=O)o1` (stereo not shown) [Example B257, 2-{6-[4-(3,3-difluoroazetidine-1-carbonyl)phen-yl]-1,3-benzothiazol-2-yl}-2-methanesulfonyl-N-[(5-methyl-1,3,4-oxadiazol-2-yl)methyl]a-cetamide]: the negative logarithm of the IC50 (pIC50) is 7.27 at hepatic lipase (HL) and 7.49 against Endothelial lipase (EL).

For `COCCNC(=O)c1ccc(-c2cc3sc(C(C(=O)NCc4nnc(C)o4)S(=O)(=O)CCOC)nc3cc2F)cc1` (stereo not shown) [Example B258, 4-{5-fluoro-2-[(2-methoxy-ethanesulfonyl)({[(5-methyl-1,3,4-oxadiazol-2-yl)methyl]carbamoyl})meth-yl]-1,3-benzothiazol-6-yl}-N-(2-methoxyeth-yl)benzamide], the values for the pIC50 against hepatic lipase (HL) and on Endothelial lipase (EL) were 6.05 and 7.24, respectively.

For the molecule `COCCS(=O)(=O)C(C(=O)NCc1nnc(C)o1)c1nc2cc(F)c(-c3ccc(C(=O)N(C)C)c(F)c3)cc2s1` (stereo not shown) [Example B259, 2-fluoro-4-{5-fluoro-2-[(2-methoxyethanesulfon-yl)({[(5-methyl-1,3,4-oxadiazol-2-yl)methyl]car-bamoyl})methyl]-1,3-benzothiazol-6-yl}-N,N-dimethylbenzamide], the values for the negative logarithm of the IC50 (pIC50) on hepatic lipase (HL) and at Endothelial lipase (EL) were 6.68 and 6.92, respectively.

Turning to `COCCS(=O)(=O)C(C(=O)NCc1nnc(C)o1)c1nc2cc(F)c(-c3ccc(C(=O)N4CC(C)(O)C4)cc3)cc2s1` (stereo not shown) [Example B260, 2-{5-fluoro-6-[4-(3-hydroxy-3-methyl-azetidine-1-carbonyl)phen-yl]-1,3-benzothiazol-2-yl}-2-(2-methoxyethane-sulfonyl)-N-[(5-methyl-1,3,4-oxadiazol-2-yl)methyl]acetamide], the pIC50 is 5.87 at hepatic lipase (HL) and 7.17 on Endothelial lipase (EL).

On to `COCCS(=O)(=O)C(C(=O)NCc1nnc(C)o1)c1nc2cc(F)c(-c3ccc(C(=O)N4CCCC4)c(F)c3)cc2s1` (stereo not shown) [Example B261, 2-{5-fluoro-6-[3-fluoro-4-(pyrrolidine-1-carbonyl)phen-yl]-1,3-benzothiazol-2-yl}-2-(2-methoxy-ethanesulfonyl)-N-[(5-methyl-1,3,4-oxadiazol-2-yl)methyl]acetamide], for which the negative logarithm of the IC50 (pIC50) on hepatic lipase (HL) is 6.12; on Endothelial lipase (EL), 6.99.

With `COCCS(=O)(=O)C(C(=O)NCc1nnc(C)o1)c1nc2cc(F)c(-c3ccc(C(=O)N4CCCC4)cc3)cc2s1` (stereo not shown) [Example B262, 2-{5-fluoro-6-[4-(pyrrolidine-1-carbonyl)phen-yl]-1,3-benzothiazol-2-yl}-2-(2-methoxy-ethanesulfonyl)-N-[(5-methyl-1,3,4-oxadiazol-2-yl)methyl]acetamide], the pIC50 is 6.43 on hepatic lipase (HL) and 6.99 against Endothelial lipase (EL).

Consider `Cc1nnc(CNC(=O)C(c2nc3ccc(-c4ccc(C(=O)N5CC(C)(O)C5)cc4)cc3s2)S(C)(=O)=O)o1` (stereo not shown) [Example B263, 2-{6-[4-(3-hydroxy-3-methylazetidine-1-carbonyl)phenyl]-1,3-benzothiazol-2-yl}-2-methanesulfonyl-N-[(5-methyl-1,3,4-oxadiazol-2-yl)methyl]acetamide], for which the pIC50 on hepatic lipase (HL) is 5.00; against Endothelial lipase (EL), 7.11.

`COCCNC(=O)c1ccc(-c2ccc3nc(C(C(=O)NCc4nnc(C)o4)S(=O)(=O)CCOC)sc3c2)cc1` (stereo not shown) [Example B264, 4-{2-[(2-methoxyethane-sulfonyl)({[(5-methyl-1,3,4-oxadiazol-2-yl)meth-yl]carbamoyl})meth-yl]-1,3-benzothiazol-6-yl}-N-(2-methoxyethyl)ben-zamide]: the values for the pIC50 at hepatic lipase (HL) and against Endothelial lipase (EL) were 6.73 and 7.03, respectively.

For `COCCS(=O)(=O)C(C(=O)NCc1nnc(C)o1)c1nc2ccc(-c3ccc(C(=O)N4CC(C)(O)C4)cc3)cc2s1` (stereo not shown) [Example B265, 2-{6-[4-(3-hydroxy-3-methylazetidine-1-carbonyl)phenyl]-1,3-benzothiazol-2-yl}-2-(2-methoxyethanesulfonyl)-N-[(5-methyl-1,3,4-oxadiazol-2-yl)methyl]a-cetamide], the pIC50 at hepatic lipase (HL) was 6.20; on Endothelial lipase (EL), 7.23.

With `COCCNC(=O)c1ccc(-c2cc3sc(C(C(=O)NCc4nnc(C)o4)S(C)(=O)=O)nc3cc2F)cc1` (stereo not shown) [Example B266, 4-{5-fluoro-2-[methanesulfonyl({[(5-methyl-1,3,4-oxadiazol-2-yl)methyl]carbamoyl})meth-yl]-1,3-benzothiazol-6-yl}-N-(2-methoxyethyl)ben-zamide], the pIC50 at hepatic lipase (HL) is 6.02; on Endothelial lipase (EL) it was 7.41.

Consider `COCCNC(=O)c1ccc(-c2ccc3nc(C(C(=O)NCCS(N)(=O)=O)S(=O)(=O)C(C)C)sc3c2)cc1` (stereo not shown) [Example B267, N-(2-methoxyethyl)-4-{2-[(propane-2-sulfonyl)[(2-sul-famoylethyl)carbamoyl]meth-yl]-1,3-benzothiazol-6-yl}benzamide], for which the pIC50 against hepatic lipase (HL) was 6.54; against Endothelial lipase (EL), 7.35.

As for `CC(C)S(=O)(=O)C(C(=O)NCCS(N)(=O)=O)c1nc2cc(C(F)(F)F)c(-c3ccc(C(=O)N4CCOCC4)cc3)cc2s1` (stereo not shown) [Example B268, 2-{6-[4-(morpholine-4-carbonyl)phenyl]-5-(trifluoromethyl)-1,3-benzothiazol-2-yl}-2-(propane-2-sulfonyl)-N-(2-sulfamoylethyl)acetamide], the pIC50 on hepatic lipase (HL) is 6.39; on Endothelial lipase (EL) it was 8.04.

As to `COCCNC(=O)c1ccc(-c2cc3sc(C(C(=O)NCCS(N)(=O)=O)S(=O)(=O)C(C)C)nc3cc2C(F)(F)F)cc1` (stereo not shown) [Example B269, N-(2-methoxyethyl)-4-{2-[(propane-2-sulfonyl)[(2-sul-famoylethyl)carbamoyl]meth-yl]-5-(trifluoro-methyl)-1,3-benzothiazol-6-yl}benzamide], the pIC50 against hepatic lipase (HL) was 6.51; at Endothelial lipase (EL) it was 8.00.
